# Legend:
# [1] = system: EBV in Burkitt's lymphoma cell lines (MutuI and BL74); test: EBV activation in Burkitt's lymphoma cell lines (VCA western blot); assay type: cell-based
# Method: To ensure that equal amounts of each sample were analyzed, the gels were stained with Coomassie blue and the loadings were adjusted to make them equal. […] Next the PEP003 and PEP004 were assayed on two Burkitt's lymphoma cell lines and an LCL. This time only concentrations of 10^−5 and 10^−7 were used.
# [2] = system: peripheral blood mononuclear cells (PBMCs); test: Phagocytosis with fluorescent beads; assay type: cell-based; conditions: whole heparinized blood, 30 min at 37° C.
# Method: Phagocytosis by peripheral blood mononuclear cells (PBMCs) was assayed (Steinkamp et al., 1982) using 1 μm Fluoresbrite™ yellow-green fluorescent latex spheres (Polysciences, Inc., Warrington, Pa.). A sample of whole, heparinized blood was treated with drug and 5×10E7 fluorescent latex beads in 10 μL of PBS added per mL of suspension. Cells were incubated and maintained in suspension for 30 min by means of a shaker platform at 37° C. The stirnulated and non-stimulated samples were then lysed to isolate PBMCs. The PBMCs were run on the flow cytometer measuring FITC (excitation at 488 nm, emission at 525±20 nm), gated for fluorescence (phagocytosed spheres) and light scatter (cell size).
# [3] = system: Peripheral blood mononuclear cells (PBMC); test: Respiratory burst (H2O2) in PBMC, DCFH-DA flow cytometry; assay type: cell-based; conditions: 15 min at 37° C.; granulocytes, monocytes, lymphocytes
# Method: Experiments were also carried out using 2′,7′-dichlorofluorescein diacetate (DCFH-DA) to measure the production of H2O2.(J P Robinson, Oxidative burst methods, in Handbook of Flow Cytometry Methods, Wiley-Liss Inc, pp147-149, 1993). H2O2 oxidizes the non-fluorescent probe (DCFH-DA) to a fluorescent probe that can then be detected by a flow cytometer. Peripheral blood mononuclear cells (PBMC) were extracted from a donor blood sample by lysis of heparinized blood and used in a suspension of 1×10^6/mL of phosphate buffer, pH 7.3. The cells were then incubated with DCFH-DA (1 μL/mL of 20 mM stock) for 15 minutes to allow it to be taken up and trapped by hydrolysis with cellular esterases. The cells were then stimulated by test compounds for 15 min at 37° C. Controls included in the experiment were unloaded control (cells with no DCFH-DA) and loaded control (cells with DCFH-DA, but no stimulation). These were used to monitor the non-specific oxidation of unstimulated cells. The cells were then analyzed on the flow cytometer (excitation at 488 nm, emission at 525±20 nm), gating each sample for individual cell populations-granulocytes, monocytes and lymphocytes (Table 3).
# [4] = system: HIV-strain pNL4-3; test: HIV-1 replication in acutely infected PBMC (CA-p24 ELISA); assay type: cell-based
# Method: Experiments were conducted to assess the effect of the compounds of the instant invention on HIV-1 replication in acutely infected T cells. Peripheral blood mononuclear cells (PBMC) were obtained from non-HIV-1, non-HIV-2, non-Hepatitis B/C infected donors, stimulated with phytohemagglutinin-M and grown in culture media supplemented with 10 U/mL interleukin-2. The activated PBMC were infected with […] (Low Titre) and 100 ng (High Titre) of CA-p24 equivalents of the HIV-strain pNL4-3. Cells were infected for two hr after which, the virus was removed and the cells were washed with culture media. Equivalent numbers of cells were seeded into 24 well plates and compounds were added to the cultured cells that included: TPA at 8 riM and 80 nM, Ingenol at 280 nM, PEP003 at 500 nM, 50 nM and 5 nM, or PEP004 at dilutions of 1×10^4 and 1×10^5 from the stock (final concentrations). In addition, uninfected activated PBMC were grown in the presence of TPA (80 nM), Ingenol (280 nM), PEP003 (500 nM) and PEP004 (1×10^4 dilution). Other cultures were neither infected nor treated with any compound, or infected but not treated with any compound. Supernatant was removed from each culture at day 0, 3, 7, and 10. The amount of HIV-1 CA-p24 was determined using a commercially available ELISA assay. Three independent experiments were performed.
# [5] = system: latently HIV-1 infected cell line (U1); test: Activation of latent HIV from U1 cells (p24 ELISA); assay type: cell-based, HIV-1 LAI strain; conditions: 20 hr, FIG. 7
# Source text: However, the regimen is very burdensome, requiring strict adherence to prevent a recurrence of viraemia. Long-lived cells […], such as CD4^+ cells, act as a major latent reservoir and enable the virus to avoid anti-retroviral chemotherapy or immune system surveillance. There is, therefore, an urgent need to find an agent which activates latent virus from the infected cells. Activated virus could then be killed by aggressive anti-retroviral chemotherapy and it has been hypothesized that immune system surveillance could also be improved under these conditions. Such an agent could have utility in other disease states in which virus is sequestered in infected cells, e.g. herpes infections. Anti-cancer agents have been widely investigated as potential anti-HIV agents. […] However, PMA is a known tumor promoter. A latently HIV-1 infected cell line (U1), derived from the promonocytic cell line U937 after infection with HIV-1 LAI strain, was used in these experiments. In the absence of activation, no or little virus (measured as p24 production) is produced by the U1 cell line. […]
# Supernatants were collected and viral replication monitored by determination of the amounts of HIV p24 gag protein in the culture supernatants by ELISA, using a NEN Life Science HIV-1 p24 ELISA kit. p24 values were calculated from OD values using a standard curve.
# [6] = system: Human peripheral blood mononuclear cells (PBMC); test: Phagocytic activity of PBMC, nitroblue tetrazolium uptake; assay type: cell-based; conditions: 100 ng/mL; 20 min; controls <2%
# Method: Human peripheral blood mononuclear cells (PBMC) prepared by standard Ficoll separation comprise approximately 5% monocytes. PBMC were incubated with dihydroethidium, a reduced form of the dye which becomes fluorescent when oxidized by a respiratory burst, then treated in 10% FCS-RPMI 1640 at 37° C. for 15 min with crude E. peplus extract diluted 1/1000 or 100 ng/mL TPA and analyzed by flow cytometry using conventional methods (Handbook of Flow Cytometry Methods, p. 151) The mean channel numbers for fluorescence were 618 (controls) and 818 (E. peplus extract diluted 1/1000). […] Phagocytic activity was determined by a conventional method (Hudson and Hay, Practical Immunology, 3rd edition, p. 74). […] The average of three fields gave figures of <2% (controls), 10% (TPA) and 8.7% (E. peplus sap) cells stained blue.
# [7] = system: rat brain PKC; test: PepTag non-radioactive PKC kinase activity assay; conditions: FIG. 1; TPA 100-0.01 ng/ml; ether extract final dilution 1 in 5; aqueous layer and crude sap diluted 1/25
# Method: The kinase activity of rat brain PKC (Promega) was determined using the Peptag™ Non-Radioactive Protein Kinase Kit (Promega). Using agarose gel electrophoresis the technique visualises the opposing electrostatic charge of a fluorescently labeled peptide ([sequence]) compared to the phosphorylated version of the same peptide.
# The reaction mixture was separated by gel electrophoresis, showing migration of the unreacted substrate (a) to the anode (top), and the product (b), which is more negatively charged because of phosphorylation by PKC, moving towards the cathode (bottom).
structure (smiles),measurement,setting,value
"CCCCCCCCCCCCCC(=O)O[C@@H]1[C@@H](C)[C@@]2(O)[C@@H](C=C(CO)C[C@]3(O)C(=O)C(C)=C[C@@H]23)C2C(C)(C)[C@@]21OC(C)=O (single isomer, unassigned) [TPA]",induction of VCA in MutuI cells,[1],TPA did not
same,stimulation of phagocytosis of fluorescent latex beads,[2],stimulate phagocytosis in PBMCs
same,"induction of a respiratory burst (H2O2, DCFH-DA)",[3],respiratory burst seen
same,reduction of HIV-1 replication rate,[4]; 8 nM,~38%
same,reduction of HIV-1 replication rate,[4]; 80 nM,~98%
same,activation of HIV from U1 cells (p24 production),[5],activated HIV from U1 cells
same,cells stained blue (NBT),[6],10%
same,activation of PKC (phosphorylation of fluorescent PepTag substrate),[7],showed activation of PKC

# From patent publication US20030195168A1, “Therapeutic agents - III” (priority 2000, published 2003)
